Test results published in article PMC12308784, “Organometallic Half-Sandwich Complexes of 1,10-Phenanthroline Derivatives with Improved Solubility, Albumin-Binding, and Nanoformulation Potential Targeting Drug Resistance in Cancer” (Inorganic Chemistry, 2025).
Several values for one entry are separate records, joined by “and”; a condition that tells them apart may be missing. Equal values may be shown once.

Key:
[1] = target: T1, HSA Sudlow’s site II (IIIA subdomain) (Homo sapiens, UniProt P02768); experiment: dansylglycine (DG) site marker displacement on HSA; format: binding; conditions: HSA–DG 1:1; PBS’; t = 25 °C
T1 construct: purchased Sigma-Aldrich A8763
Description: To further explore the binding affinity and site specificity of the metal complexes, site marker displacement experiments were conducted using WF and DG, which bind to Sudlow’s site I (in IIA subdomain) and to Sudlow’s site II (in IIIA subdomain), respectively. The displacement of these fluorescence probes directly confirms the interactions of the metal complexes with the respective binding sites. The displacement constants of WF (KWF′) by the metal complexes (Figure c,d, Table ) were correlated with the Trp-214 quenching data.
(§1) Fluorescence measurements were carried out on a Fluoromax (Horiba Jobin Yvon) spectrofluorometer using a 1 cm × 1 cm quartz cuvette in order to assess the interactions of the complexes with HSA in PBS’ medium at 25 °C. The calculated quenching or displacement conditional constants for the HSA-complex species were obtained using the computer program HypSpec. Calculations always were based on data obtained from at least two independent measurements. Self-absorbance and inner filter effect had to be taken into account, and corrections were made as it was described in our former works. ,
Table S7. Conditions applied for steady -state spectrofluorometric measurements.
cHSA cMARKER ccomplex λEX λEM slit widths
(μM) (μM) (μM) (nm) (nm) EX/EM […]
S.; Deflon, V. M.; Ferreira, A. G.; Cominetti, M. R.; Batista, A. A. Cytotoxicity of Ru(II) Piano-
Stool Complexes with Chloroquine and Chelating Ligands against Breast and Lung Tumor Cells:
Interactions with DNA and BSA. J Inorg Biochem 2015, 153, 150–161.
Van Deun, R.; Van Hecke, K. Antitumor Activity of Organoruthenium Complexes with Chelate

[2] = pKa of the coordinated aqua ligand by UV–vis pH titration; format: physicochemical; conditions: [M(arene/arenyl)(ligand)(H2O)]2+; chloride-free; I = 0.2 M KNO3; t = 25 °C
Description: The K a values of the complexes with BP and DCP ligands for the [M(η^6-arene/η^5-arenyl)(ligand)(H2O)]^2+ ⇌ [M(η^6-arene/η^5-arenyl)(ligand)(OH)]^+ + H^+ process also provide valuable insights into their behavior in aqueous solutions. In order to determine the K a values, UV–vis spectra were recorded at different pH values under chloride-free conditions, as shown for the complex RuCymDCP in Figure , and the determined pK a values are presented in Table . […] However, at higher pH values, spectral shifts indicate the onset of aqua ligand deprotonation. For RuCym complexes, the calculated pK a values (Table ) indicate moderate acidity and a higher tendency for deprotonation at physiological pH compared with the RhCp* complexes. […] This lower value is most likely due to the stronger tendency of IrCp*, as well as RuCym, to undergo hydrolysis compared to RhCp*.
An Agilent Cary 8454 diode array spectrophotometer was utilized to obtain UV–vis spectra in the wavelength range 190–1100 nm; the path length was 1 cm. The concentrations of the complexes were between 20 and 100 μM. The actual pH of the samples were measured with an Orion 710A pH-meter equipped with a Metrohm combined electrode (type 6.0234.100) and the pH titrations were performed by a KOH solution using a Metrohm 665 Dosimat buret at 25.0 °C. […] The computer program HypSpec was used to calculate the equilibrium constants.

[3] = target: T2, human serum albumin (HSA), Trp-214 in Sudlow’s site I (Homo sapiens, UniProt P02768); experiment: Trp-214 fluorescence quenching of HSA; format: binding; conditions: PBS’; t = 25 °C; 24 h incubation; c HSA = 1.2 μM; RuCym values conditional at 24 h
T2 construct: purchased Sigma-Aldrich A8763
Source text: Fluorescence spectroscopy was utilized to elucidate the binding sites on HSA that are targeted by the metal complexes. This investigation concentrated on two key aspects: the quenching of HSA’s intrinsic fluorescence attributed to the sole tryptophan residue (Trp-214) and the displacement of site-specific fluorescent markers warfarin (WF) and dansylglycine (DG). Trp-214 is situated in Sudlow’s site I within the IIA subdomain, rendering it a valuable probe for evaluating interactions at this site. Fluorometric measurements, conducted over a 5 h time frame (see example for RhCp*BP in Figure S19), corroborated the results of UV–vis experiments, the quenching of fluorescence took several hours for the RhCp* complexes, while RuCym compounds had no remarkable effect of Trp-214 fluorescence. Quenching studies were conducted over a 24 h incubation period. This time frame is most probably not enough to reach equilibrium with RuCym complexes; however, this is considered as the upper limit that can be physiologically relevant, as longer incubation times are rendered irrelevant by metabolism and elimination. […] Quenching constants (KQ^′) were computed using HypSpec software. […] It should be noted that quenching constants calculated for the RuCym complexes represent only a temporary state at 24 h of incubation time.
7 Binding interactions of RhCp*BP with HSA analyzed via fluorescence quenching and marker displacement assays. (a) Trp214 fluorescence quenching by RhCp*BP. (b) Measured (dots) and fitted (dashed lines) quenching curves for RhCp*BP, RuCymBP, RhCp*DCP, and RuCymDCP. Fluorescence spectra of the (c) HSA–WF 1:1 and (e) HSA–DG 1:1 systems by the addition of RhCp*BP (dashed lines indicate the free site marker) and the corresponding fluorescence intensity curves at the indicated wavelengths (d,f). The dotted line in figure (d) denotes the fitted intensities. {c HSA = 1.2 μM; c marker = 0 or 1.2 μM PBS’; t = 25 °C}.
as §1, with “works. , […]” for “works. ,”
Table S7. Conditions applied for steady -state spectrofluorometric measurements. cHSA cMARKER ccomplex λEX λEM slit widths […]

T1 sequence (P02768 25-609): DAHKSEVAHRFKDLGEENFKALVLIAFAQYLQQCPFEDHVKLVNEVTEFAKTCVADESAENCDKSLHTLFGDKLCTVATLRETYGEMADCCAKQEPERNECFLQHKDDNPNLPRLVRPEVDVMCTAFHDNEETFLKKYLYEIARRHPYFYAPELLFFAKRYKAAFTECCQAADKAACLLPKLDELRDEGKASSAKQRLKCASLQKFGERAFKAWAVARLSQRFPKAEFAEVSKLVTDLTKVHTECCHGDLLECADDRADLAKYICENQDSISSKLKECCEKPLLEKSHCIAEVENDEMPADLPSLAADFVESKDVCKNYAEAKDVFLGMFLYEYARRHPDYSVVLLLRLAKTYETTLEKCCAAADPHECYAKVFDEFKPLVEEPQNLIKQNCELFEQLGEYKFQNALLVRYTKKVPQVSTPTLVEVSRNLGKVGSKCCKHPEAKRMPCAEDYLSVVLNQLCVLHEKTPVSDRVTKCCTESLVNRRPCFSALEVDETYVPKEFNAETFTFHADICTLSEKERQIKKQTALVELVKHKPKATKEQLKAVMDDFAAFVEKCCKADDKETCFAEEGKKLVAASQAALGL
T2 sequence (P02768 25-609): as above

| Compound | DG displacement / interaction with Sudlow’s site II [1] | pK a [ML(H2O)] [2] | logK Q′ (quenching constant) [3] |
| --- | --- | --- | --- |
| [Rh(III)(η^5-C5Me5)(bathophenanthroline)Cl]Cl [RhCp*BP] | able to displace the DG | 8.81 ± 0.06 | 5.5 and 5.5 ± 0.1 |
| Cc1ccc(C(C)C)cc1.[Cl-].[Cl-].[Ru+2].c1ccc(-c2ccnc3c2ccc2c(-c4ccccc4)ccnc23)cc1 [RuCymBP, [Ru(II)(η^6-p-cymene)(bathophenanthroline)Cl]Cl] | no significant interaction | 7.57 ± 0.06 | 4.3 ± 0.1 |
| Cc1ccc(C(C)C)cc1.Clc1ccnc2c1ccc1c(Cl)ccnc12.[Cl-].[Cl-].[Ru+2] [RuCymDCP, [Ru(II)(η^6-p-cymene)(4,7-dichloro-1,10-phenanthroline)Cl]Cl] | no significant interaction | 7.21 ± 0.06 | ≤3.8 |
| Cc1c(C)c(C)[c-](C)c1C.Clc1ccnc2c1ccc1c(Cl)ccnc12.[Cl-].[Cl-].[Rh+3] [RhCp*DCP, [Rh(III)(η^5-C5Me5)(4,7-dichloro-1,10-phenanthroline)Cl]Cl] | no significant interaction | 8.33 ± 0.05 | 4.6 and 4.6 ± 0.1 |
